Reference: PubChem BioAssay AID492955 (The Scripps Research Institute Molecular Screening Center, 2010)
Calls of active or inactive are those of the source.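 The calls were made as follows: active = at 10 µM dose, any replicate showing 50% or greater reduction of parasite growth in red cells; inactive = the rest.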

These compounds were tested on P. falciparum 3D7 in RBCs, 3H-hypoxanthine uptake, 48 h (assay: P. falciparum growth inhibition in erythrocytes, late-stage follow-up, M17LAP inhibitor project, cell-based, radiolabel, RBCs, powder samples (AID 492955)). Conditions: at 10 µM; hits give high values.
With `Cc1noc(NS(=O)(=O)c2ccc(NC(=O)CSc3nnc4c(n3)[nH]c3ccccc34)cc2)c1C` the inhibition was 1.67% (inactive). For `CCOC(=O)c1c(-c2cccc(C)c2)csc1NC(=O)[C@H]1CC=CC[C@H]1C(=O)O`, the inhibition was 1.83% (inactive). For `O=C(O)CCCCCNC(=O)Nc1ccc2c(c1)OCCO2`, the inhibition was 6.33% (inactive). In the case of `COC(=O)c1c(NC(=O)[C@H]2CCCC[C@H]2C(=O)O)sc2c1CCCCC2`, the inhibition was 3.33% (inactive). With `Cc1ccc(Nc2nnc(SC3CCOC3=O)s2)cc1` (stereo unspecified) the inhibition was 4% (inactive). For `CC(=O)NS(=O)(=O)c1ccc(N=c2ssc3c2-c2ccc(C)cc2NC3(C)C)cc1`, the inhibition was 4.5% (inactive). In the case of `CCOc1cccc(-c2cc(=O)[nH][nH]2)c1`, the inhibition was 2.83% (inactive). With `CCc1nnc(NC(=O)CSc2nnc(-c3ccc(NS(=O)(=O)c4ccccc4)cc3)o2)s1` the inhibition was 2.33% (inactive). `O=C(Nc1ccc(Cl)cc1)Nc1cccc(C(=O)O)c1` was tested, and the inhibition was 0% (inactive). `CCc1ccc(NC(=O)[C@H]2CC=CC[C@H]2C(=O)O)cc1` was tested, and the inhibition was 0% (inactive). In the case of `CN1C(=O)/C(=C/c2ccc(-c3ccccc3[N+](=O)[O-])o2)SC1=Nc1ccc(Cl)c(C(=O)O)c1`, the inhibition was 0% (inactive). `C=CCn1c(SCC(=O)Nc2cccc3ccccc23)nc(O)c(CC)c1=O` was tested, and the inhibition was 8.22% (inactive). For `COc1ccc(-c2cc(=O)[nH][nH]2)cc1`, the inhibition was 0% (inactive). For `O=C(O)Cc1ccc(NC(=O)Nc2ccc(Br)cc2)cc1`, the inhibition was 1.67% (inactive). With `CCOC(=O)c1c(NC(=O)[C@@H]2C3CCC(O3)[C@@H]2C(=O)O)sc(C)c1-c1ccc(C)cc1` (stereo partly specified) the inhibition was 0% (inactive). `Cc1ccc(-n2c(C)cc(C(=O)COC(=O)c3ccc[nH]c3=O)c2C)cc1C` was tested, and the inhibition was 3.17% (inactive). `COc1cc(NC(=O)CSc2nc3ccccc3cc2C)c(C(=O)O)cc1OC` was tested, and the inhibition was 5.89% (inactive). With `Cc1cc(C(=O)COC(=O)c2ccc[nH]c2=O)c(C)n1-c1ccc(F)cc1` the inhibition was 0% (inactive). `O=C(Nc1cc(Cl)ccc1Cl)[C@H]1CC=CC[C@H]1C(=O)O` was tested, and the inhibition was 1.33% (inactive). For `COc1ccc(C(C)(C)C)cc1NC(=O)[C@H]1CC=CC[C@H]1C(=O)O`, the inhibition was 0% (inactive). `CCc1ccc(Nc2nnc(SC3CCOC3=O)s2)cc1` (stereo unspecified) was tested, and the inhibition was 0% (inactive). For `COc1ccc(NC(=O)CSC2=NC(=O)CC(C)=N2)cc1`, the inhibition was 0% (inactive). `S=c1nc(-c2ccccc2Br)[nH][nH]1` was tested, and the inhibition was 0% (inactive). For `COc1cc(NC(=O)CSc2ncnc3scc(-c4ccccc4)c23)c(C(=O)O)cc1OC`, the inhibition was 6.83% (inactive). For `O=C(Nc1cccc(Cl)c1)[C@H]1CC=CC[C@H]1C(=O)O`, the inhibition was 0.333% (inactive). In the case of `Cc1ccc(Nc2nnc(SCc3cc(=O)n4ccsc4n3)s2)c(C)c1`, the inhibition was 18.4% (inactive). For `O=c1cc(-c2ccc(F)cc2)[nH][nH]1`, the inhibition was 5.67% (inactive). With `O=C(CSc1nc(O)cc(=O)n1-c1ccccc1)Nc1ccc2c3c(cccc13)CC2` the inhibition was 3% (inactive). `COc1cc(NC(=O)CSc2nc3cc(C)ccc3cc2C)c(C(=O)O)cc1OC` was tested, and the inhibition was 5.17% (inactive). With `CCOC(=O)c1c(NC(=O)[C@@H]2C3C=CC(C3)[C@@H]2C(=O)O)sc2c1CCC(CC)C2` (stereo partly specified) the inhibition was 5% (inactive). For `COC(=O)c1c(-c2ccc(C)cc2)csc1NC(=O)[C@H]1CC=CC[C@H]1C(=O)O`, the inhibition was 0% (inactive). For `Cn1c(SCC(=O)Nc2cccc3ccccc23)nc(O)cc1=O`, the inhibition was 2.5% (inactive). With `COc1ccc(-c2cc(=O)[nH][nH]2)cc1OC` the inhibition was 3.83% (inactive). For `COC(=O)c1c(NC(=O)[C@H]2CC=CC[C@H]2C(=O)O)sc(C)c1C`, the inhibition was 1.33% (inactive). For `CCOc1ccc(NC(=O)Nc2ccc3nccnc3c2)cc1`, the inhibition was 16% (inactive). With `N#Cc1c(NC(=O)[C@@H]2C3C=CC(C3)[C@@H]2C(=O)O)sc2c1CCCCC2` (stereo partly specified) the inhibition was 0% (inactive). For `COC(=O)c1cccc(NC(=O)CSc2nc(C)cc(=O)[nH]2)c1`, the inhibition was 9.78% (inactive). In the case of `CCc1cc2ccc(C)cc2nc1SCC(=O)Nc1cc(OC)c(OC)cc1C(=O)O`, the inhibition was 6.44% (inactive). For `COc1ccc(NC(=O)CSc2nc(O)cc(=O)n2C)cc1`, the inhibition was 3.67% (inactive). For `CC1=Nc2ccc(C)cc2/C1=C/c1c(N)n2c(S(=O)(=O)C(C)C)nsc2nc1=O`, the inhibition was 19.2% (inactive). For `CCCCOc1ccc(CC(=O)NO)cc1`, the inhibition was 81.2%. With `CCCCc1c(O)nc(SCC(=O)Nc2ccc3c(c2)CCC3)[nH]c1=O` the inhibition was 7.67% (inactive). In the case of `COc1ccc2nc(SCC(=O)Nc3cc(OC)c(OC)cc3C(=O)O)c(C)cc2c1`, the inhibition was 1.44% (inactive). With `O=C(CSc1nccc(=O)[nH]1)Nc1ccc(Br)c(Cl)c1` the inhibition was 8.67% (inactive). For `COC(=O)c1c(-c2cc(C)ccc2C)csc1NC(=O)[C@@H]1CC=CC[C@@H]1C(=O)O`, the inhibition was 3.33% (inactive). With `CC1=C(C)C[C@@H](C(=O)O)[C@@H](C(=O)Nc2cccc([N+](=O)[O-])c2)C1` the inhibition was 11.2% (inactive). With `Cc1cc(C(=O)COC(=O)c2ccc[nH]c2=O)c(C)n1-c1ccccc1` the inhibition was 6.67% (inactive). With `COc1cc(NC(=O)CSc2nnc3c(C)cc4cc(C)cc(C)c4n23)c(C(=O)O)cc1OC` the inhibition was 7.56% (inactive). With `O=c1cc(-c2ccc(Cl)c(Cl)c2)[nH][nH]1` the inhibition was 2.67% (inactive). For `Cc1ccc(-n2c(C)cc(C(=O)COC(=O)c3ccc[nH]c3=O)c2C)cc1`, the inhibition was 20% (inactive). `CCc1cc2ccccc2nc1SCC(=O)Nc1cc(OC)c(OC)cc1C(=O)O` was tested, and the inhibition was 2.78% (inactive). In the case of `O=C(CSc1nnc(Nc2ccccc2)s1)NN1C(=O)NC2(CCCCC2)C1=O`, the inhibition was 12.9% (inactive). With `Cc1ccc(-c2c(C)sc(NC(=O)[C@@H]3C4CCC(O4)[C@@H]3C(=O)O)c2C(=O)OC(C)C)cc1` (stereo partly specified) the inhibition was 6.33% (inactive). For `CCOC(=O)c1c(-c2ccc(C)cc2)csc1NC(=O)[C@H]1CC=CC[C@H]1C(=O)O`, the inhibition was 10.7% (inactive). With `CCc1cc2cc(OC)ccc2nc1SCC(=O)Nc1cc(OC)c(OC)cc1C(=O)O` the inhibition was 2.33% (inactive). In the case of `CCn1c2ccccc2c2cc(NC(=O)CSc3nccc(=O)[nH]3)ccc21`, the inhibition was 2.67% (inactive). With `Cc1ccc(NC(=O)CSc2nnc(C)c(=O)[nH]2)cc1C` the inhibition was 15.8% (inactive). With `COc1cc(NC(=O)CSc2nc3c(C)ccc(C)c3cc2C)c(C(=O)O)cc1OC` the inhibition was 5% (inactive). `COC(=O)c1c(-c2ccco2)csc1NC(=O)[C@H]1CC=CC[C@H]1C(=O)O` was tested, and the inhibition was 0% (inactive). For `CCN(CC)c1ccc(NC(=O)CSc2nc(C)cc(=O)[nH]2)cc1`, the inhibition was 3.5% (inactive). For `CCc1cc2cc3c(cc2nc1SCC(=O)Nc1cc(OC)c(OC)cc1C(=O)O)OCO3`, the inhibition was 0% (inactive). For `S=c1nc(-c2cccc(Cl)c2)[nH][nH]1`, the inhibition was 0% (inactive). `Cc1ccc(-c2cccc(NC(=O)[C@@H]3C4C=CC(C4)[C@@H]3C(=O)O)c2)o1` (stereo partly specified) was tested, and the inhibition was 8.83% (inactive). With `CCOc1ccc(NC(=O)Nc2cccs2)cc1` the inhibition was 0% (inactive). In the case of `N#Cc1c(-c2ccccc2)nc(SCC(=O)N2c3ccccc3Sc3ccccc32)[nH]c1=O`, the inhibition was 1% (inactive). With `CC(C)c1ccc(NC(=O)[C@H]2CCCC[C@H]2C(=O)O)cc1` the inhibition was 5.67% (inactive).
